The text below walks through data of US10611740B2, “Aryl dihydro-2H-benzo[b][1,4]oxazine sulfonamide and related compounds for use as agonists of RORγ and the treatment of disease” (Lycera Corporation, priority 2015, dated 2020).

Molecules are shown by their SMILES. pEC50: −log10 of the molar value.

One test concerns the target T1, Gal4-RORγ-LBD (Homo sapiens, UniProt P51449).
T1 construct: expressed in transfected cells; host or cells: HEK-293 cells (pcDNA3.1neo plasmid)
T1 sequence (P51449 269-508 limits assumed): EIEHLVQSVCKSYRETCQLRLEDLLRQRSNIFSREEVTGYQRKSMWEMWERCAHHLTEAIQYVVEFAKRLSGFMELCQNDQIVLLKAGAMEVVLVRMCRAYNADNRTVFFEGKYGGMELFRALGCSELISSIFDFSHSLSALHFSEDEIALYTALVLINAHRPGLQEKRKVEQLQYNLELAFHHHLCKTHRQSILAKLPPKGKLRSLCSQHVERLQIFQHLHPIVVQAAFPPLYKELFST
Kind of test: Gal4-RORγ Luciferase Reporter Assay in HEK-293T Cells. The format is cell-based. Particulars: HEK-293 cells. The method, boiled down:
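Luminescence read-out (One-Glo, 10 min RT) after overnight compound exposure at 37 °C in HEK-293 cells carrying Gal4-RORγ-LBD plus a Gal4-luciferase reporter, in the presence of 2 μM ursolic acid. Max Response is the upper plateau from a 4-parameter logistic fit, normalized to untreated signal = 100.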
On the technique in general: Reporter assays use an easily measured gene product as a stand-in for the process of interest.

In another test the target is T2, RORγ-LBD (Homo sapiens, UniProt P51449).
T2 construct: made in house; host or cells: SF9 cells (baculovirus)
T2 sequence (P51449 269-508 limits assumed): T1 sequence (P51449 269-508 limits assumed)
Kind of test: RORγ-Ligand Binding Domain (LBD) TR-FRET Assay.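 For TR-FRET Assay Max Response: 665/615 nm ratio relative to signal without ursolic acid or compound set at 100.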 The format is biochemical. The method, boiled down:
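TR-FRET read-out using a biotin-tagged SRC1 coactivator LXXLL peptide (200 nM final), with the antagonist ursolic acid present at 2 μM final. Receptor is His-tagged LBD expressed in SF9 cells, ~3 nM final in pH 7.0 Tris/KCl/EDTA/DTT/BSA buffer; compounds in 1% DMSO final.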

[1] abbreviates: luciferase reporter, with 2 μM ursolic acid.

As a reminder, the pEC50 is the negative decadic logarithm of the EC50, by convention in mol/L. The low end stands for a high EC50, the high end for a low EC50. As for `CC(C)(CC[C@H]1CN(S(=O)(=O)c2cccc(C(F)(F)F)c2)c2cc(-c3cccc(C(F)(F)F)n3)ccc2O1)C(=O)O` [Compound 32P, (S)-2,2-dimethyl-4-(4-((3-(trifluoromethyl)phenyl)sulfonyl)-6-(6-(trifluoromethyl)pyridin-2-yl)-3,4-dihydro-2H-benzo[b][1,4]oxazin-2-yl)butanoic acid], on Gal4-RORγ-LBD (setting [1]), the pEC50 is above 6.30 and the “Gal4-RORγ Assay Max Response” value is recorded as “** (The symbol “**” indicates a value in the range of greater than 90 to 150)”. At RORγ-LBD, the negative logarithm of the EC50 (pEC50) is above 6.30 and the “TR-FRET Assay Max Response” value is on record as “*** (The symbol “***” indicates a value in the range of greater than 150 to 200)”.

On to `O=C(O)CC[C@H]1CN(S(=O)(=O)c2cccc(C(F)(F)F)c2)c2cc(-c3cc(F)cc(F)c3)cc(F)c2O1` [Compound 22K, (S)-3-(6-(3,5-difluorophenyl)-8-fluoro-4-((3-(trifluoromethyl)-phenyl)sulfonyl)-3,4-dihydro-2H-benzo[b][1,4]oxazin-2-yl)propanoic acid], for which, on Gal4-RORγ-LBD (2 μM ursolic acid), the pEC50 was above 6.30 and the “Gal4-RORγ Assay Max Response” value is listed as “** (The symbol “**” indicates a value in the range of greater than 90 to 150)”. At RORγ-LBD, the negative-log EC50 (pEC50) was above 6.30 and the “TR-FRET Assay Max Response” value is “*** (The symbol “***” indicates a value in the range of greater than 150 to 200)”.

On to `C[C@@H](C[C@H]1CN(S(=O)(=O)c2cccc(C(F)(F)F)c2)c2cc(-c3cccc(Cl)c3F)ccc2O1)C(=O)O` [Compound 46E, (S)-3-((S)-6-(3-chloro-2-fluoro-phenyl)-4-((3-(trifluoromethyl)-phenyl)sulfonyl)-3,4-dihydro-2H-benzo[b][1,4]oxazin-2-yl)-2-methylpropanoic acid], for which, on Gal4-RORγ-LBD (2 μM ursolic acid), the pEC50 is 5.30 to 6.30 and the “Gal4-RORγ Assay Max Response” value is “* (The symbol “*” indicates a value in the range of 25 to 90)”. Besides, on RORγ-LBD, the pEC50 is above 6.30 and the “TR-FRET Assay Max Response” value is given as “** (The symbol “**” indicates a value in the range of greater than 90 to 150)”.

As to `O=C(O)CC[C@H]1CN(S(=O)(=O)c2cccc(C(F)(F)F)c2)c2cc(-c3ncc4ccccn34)ccc2O1` [Compound 4N, (S)-3-(6-(imidazo[1,5-a]pyridin-3-yl)-4-((3-(trifluoromethyl)-phenyl)sulfonyl)-3,4-dihydro-2H-benzo[b][1,4]oxazin-2-yl)propanoic acid], on Gal4-RORγ-LBD (setting [1]), the pEC50 was 5.30 to 6.30 and the “Gal4-RORγ Assay Max Response” value is given as “** (The symbol “**” indicates a value in the range of greater than 90 to 150)”. Further, on RORγ-LBD, the negative logarithm of the EC50 (pEC50) is above 6.30 and the “TR-FRET Assay Max Response” value is on record as “**** (The symbol “****” indicates a value greater than 200)”.

With `CN(CCC(=O)O)C(=O)NCC[C@H]1CN(S(=O)(=O)c2cccc(C(F)(F)F)c2)c2cc(-c3cc(F)ccc3F)ccc2O1` [Compound 23Y, (S)-3-(3-(2-(6-(2,5-difluoro-phenyl)-4-((3-(trifluoromethyl)-phenyl)sulfonyl)-3,4-dihydro-2H-benzo[b][1,4]oxazin-2-yl)ethyl)-1-methylureido)propanoic acid], at Gal4-RORγ-LBD (setting [1]), the pEC50 was above 6.30 and the “Gal4-RORγ Assay Max Response” value was “** (The symbol “**” indicates a value in the range of greater than 90 to 150)”. In addition, at RORγ-LBD, the pEC50 was above 6.30 and the “TR-FRET Assay Max Response” value is “*** (The symbol “***” indicates a value in the range of greater than 150 to 200)”.

`O=C(O)CC[C@H]1CN(S(=O)(=O)c2cccc(C(F)(F)F)c2)c2cc(-c3cccc(Cl)c3F)c(Cl)cc2O1` [Compound 22J, (S)-3-(7-chloro-6-(3-chloro-2-fluorophenyl)-4-((3-(trifluoro-methyl)phenyl)sulfonyl)-3,4-dihydro-2H-benzo[b][1,4]oxazin-2-yl)propanoic acid]: at Gal4-RORγ-LBD (2 μM ursolic acid), the pEC50 is above 6.30 and the “Gal4-RORγ Assay Max Response” value was “** (The symbol “**” indicates a value in the range of greater than 90 to 150)”. Further, at RORγ-LBD, the pEC50 was above 6.30 and the “TR-FRET Assay Max Response” value is given as “*** (The symbol “***” indicates a value in the range of greater than 150 to 200)”.

For `O=C(NC[C@H]1CN(S(=O)(=O)c2cccc(C(F)(F)F)c2)c2cc(-c3cccc(F)c3Cl)ccc2O1)C1(CO)CC1` [Compound 30CB, (S)-N-((6-(2-chloro-3-fluoro-phenyl)-4-((3-(trifluoromethyl)-phenyl)sulfonyl)-3,4-dihydro-2H-benzo[b][1,4]oxazin-2-yl)methyl)-1-(hydroxymethyl)-cyclopropane-1-carboxamide], at Gal4-RORγ-LBD (2 μM ursolic acid), the pEC50 was above 6.30 and the “Gal4-RORγ Assay Max Response” value is given as “* (The symbol “*” indicates a value in the range of 25 to 90)”. Besides, on RORγ-LBD, the pEC50 is above 6.30 and the “TR-FRET Assay Max Response” value is recorded as “*** (The symbol “***” indicates a value in the range of greater than 150 to 200)”.

Regarding `O=C(O)[C@H]1C[C@@H]1[C@H]1CN(S(=O)(=O)c2cccc(C(F)(F)F)c2)c2cc(-c3cc(F)cc(OC(F)F)c3)ccc2O1` [Compound 56, (1S,2S)-2-((S)-6-(3-(difluoromethoxy)-5-fluorophenyl)-4-((3-(trifluoromethyl)phenyl)sulfonyl)-3,4-dihydro-2H-benzo[b][1,4]oxazin-2-yl)cyclopropane-1-carboxylic acid], at Gal4-RORγ-LBD (2 μM ursolic acid), the pEC50 was 5.30 to 6.30 and the “Gal4-RORγ Assay Max Response” value is “** (The symbol “**” indicates a value in the range of greater than 90 to 150)”. For the same compound, on RORγ-LBD, the pEC50 is above 6.30 and the “TR-FRET Assay Max Response” value was “** (The symbol “**” indicates a value in the range of greater than 90 to 150)”.

Take `COc1cc(F)cc(-c2ccc3c(c2)N(S(=O)(=O)c2cccc(C(F)(F)F)c2)C[C@H](CCc2n[nH]c(=O)o2)O3)c1F` [Compound 28G, (S)-5-(2-(6-(2,5-difluoro-3-methoxyphenyl)-4-((3-(trifluoromethyl)phenyl)sulfonyl)-3,4-dihydro-2H-benzo[b][1,4]-oxazin-2-yl)ethyl)-1,3,4-oxadiazol-2(3H)-one]: on Gal4-RORγ-LBD (setting [1]), the negative logarithm of the EC50 (pEC50) was above 6.30 and the “Gal4-RORγ Assay Max Response” value was “** (The symbol “**” indicates a value in the range of greater than 90 to 150)”. Besides, at RORγ-LBD, the negative logarithm of the EC50 (pEC50) is above 6.30 and the “TR-FRET Assay Max Response” value is “**** (The symbol “****” indicates a value greater than 200)”.

Take `CC(=O)N[C@@H](C(=O)NC[C@H]1CN(S(=O)(=O)c2cccc(C(F)(F)F)c2)c2cc(-c3cc(F)ccc3F)ccc2O1)C(C)C` [Compound 30AS]: on Gal4-RORγ-LBD (setting [1]), the pEC50 was 5.30 to 6.30 and the “Gal4-RORγ Assay Max Response” value is reported as “* (The symbol “*” indicates a value in the range of 25 to 90)”. Besides, on RORγ-LBD, the pEC50 is above 6.30 and the “TR-FRET Assay Max Response” value was “*** (The symbol “***” indicates a value in the range of greater than 150 to 200)”.

On to `COc1cccc(-c2ccc3c(c2)N(S(=O)(=O)c2cccc(C(F)(F)F)c2)C[C@H](CC(C)(C)C(=O)O)O3)c1` [Compound 32B, (S)-3-(6-(3-methoxyphenyl)-4-((3-(trifluoromethyl)phenyl)sulfonyl)-3,4-dihydro-2H-benzo[b][1,4]oxazin-2-yl)-2,2-dimethylpropanoic acid], for which, on Gal4-RORγ-LBD (setting [1]), the pEC50 is above 6.30 and the “Gal4-RORγ Assay Max Response” value was “** (The symbol “**” indicates a value in the range of greater than 90 to 150)”. At RORγ-LBD, the pEC50 was above 6.30 and the “TR-FRET Assay Max Response” value was “*** (The symbol “***” indicates a value in the range of greater than 150 to 200)”.

`CC(C)(CC[C@H]1CN(S(=O)(=O)c2cccc(C(F)(F)F)c2)c2cc(-c3cc(F)ccc3F)ccc2O1)C(=O)O` [Compound 32A, (S)-4-(6-(2,5-difluorophenyl)-4-((3-(trifluoromethyl)phenyl)-sulfonyl)-3,4-dihydro-2H-benzo[b][1,4]oxazin-2-yl)-2,2-dimethylbutanoic acid]: on Gal4-RORγ-LBD (setting [1]), the pEC50 is above 6.30 and the “Gal4-RORγ Assay Max Response” value is reported as “** (The symbol “**” indicates a value in the range of greater than 90 to 150)”. Moreover, at RORγ-LBD, the pEC50 is above 6.30 and the “TR-FRET Assay Max Response” value is recorded as “**** (The symbol “****” indicates a value greater than 200)”.

For `Cc1nnc(-c2ccc3c(c2)N(S(=O)(=O)c2cccc(C(F)(F)F)c2)C[C@H](CCC(=O)O)O3)o1` [Compound 4Z, (S)-3-(6-(5-methyl-1,3,4-oxadiazol-2-yl)-4-((3-(trifluoro-methyl)phenyl)sulfonyl)-3,4-dihydro-2H-benzo[b][1,4]-oxazin-2-yl)propanoic acid], the negative-log EC50 (pEC50) on Gal4-RORγ-LBD (setting [1]) was below 5.00. Also, on RORγ-LBD, the pEC50 is 5.30 to 6.30 and the “TR-FRET Assay Max Response” value is on record as “* (The symbol “*” indicates a value in the range of 25 to 90)”.

Turning to `O=C(O)[C@H](O)CC[C@H]1CN(S(=O)(=O)c2cccc(C(F)(F)F)c2)c2cc(-c3cc(F)ccc3F)ccc2O1` [Compound 38, (R)-4-((S)-6-(2,5-difluorophenyl)-4-((3-(trifluoromethyl)phenyl)sulfonyl)-3,4-dihydro-2H-benzo[b][1,4]oxazin-2-yl)-2-hydroxybutanoic acid], at Gal4-RORγ-LBD (setting [1]), the negative-log EC50 (pEC50) is above 6.30 and the “Gal4-RORγ Assay Max Response” value is listed as “** (The symbol “**” indicates a value in the range of greater than 90 to 150)”. At RORγ-LBD, the pEC50 is above 6.30 and the “TR-FRET Assay Max Response” value was “*** (The symbol “***” indicates a value in the range of greater than 150 to 200)”.
